The source of these data is US9765105B2, “Macrolide compound” (Pulike Biological Engineering, Inc., priority 2013, dated 2017).

Holding throughout (test): in vitro susceptibility, MIC by mini broth dilution
Common to all, as to format: cell-based

For experiment [1], the system named is Staphylococcus aureus CVCC26003. The conditions noted are these: strain CVCC26003. The gist of the method:
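S. aureus CVCC26003 was revived and subcultured twice, 20 h each at 35° C, on solid medium, then diluted 1:200 in CAMHB liquid medium. Compounds received an 11-step two-fold DMSO dilution in parallel duplicate rows. MIC was read by mini broth dilution per NCCLS guidance.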

For experiment [2], the system named is Actinobacillus pleuropneumoniae CVCC262. The conditions noted are these: strain CVCC262. The essentials: (§1)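 Broth microdilution MIC, NCCLS method: 11-point two-fold DMSO compound series, duplicate rows, well 12 as control. Inoculum from 20 h, 35° C plate cultures, diluted 1:200 in broth.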
Another experiment deals with Haemophilus parasuis. The gist of the method: as §1
Experiment [3] concerns Pasteurella multocida CVCC399. The following applies: strain CVCC399. The gist of the method:
as §1

In experiment [4] the test system is Streptococcus equines CVCC556. The conditions noted are these: strain CVCC556. The essentials:
as §1

On to `CC[C@H]1OC(=O)[C@H](C)[C@@H](O[C@H]2C[C@@](C)(OC)[C@](O)(CNN3CCOCC3)[C@H](C)O2)[C@H](C)[C@@H](O[C@@H]2O[C@H](C)C[C@H](N(C)C)[C@H]2O)[C@](C)(O)C[C@@H](C)NC[C@H](C)[C@@H](O)[C@]1(C)O` [syzx-48, (2R,3S,4R,5S,8R,10R,11R,12S,13S,14R)-13-[(2,6-dideoxy-3-C-methyl-3-O-methyl-4-C-[(morpholin-4-yl-amino)-methyl]-α-L-ribopyranosyl)oxy]-2-ethyl-3,4,10-trihydroxy-3,5,8,10,12,14-hexamethyl-11-[[3,4,6-trideoxy-3-(dimethylamino)-β-D-xylo-hexopyranosy]oxy]-1-oxa-7-azacyclopentadecan-15-one], for which, in experiment [1], the “MIC values, Staphylococcus aureus CVCC26003” value amounted to 0.5 ug/mi. In experiment [2], the “MIC values, Actinobacillus pleuropneumoniae CVCC262” value is recorded as 16 ug/mi. Moreover, the “MIC values, Haemophilus parasuis” value with Haemophilus parasuis is on record as “≦0.25 ug/mi”. In experiment [3], the “MIC values, Pasteurella multocida CVCC399” value was found to be 1 ug/mi. Also, the “MIC values, Streptococcus equines CVCC556” value in experiment [4] was determined as 0.5 ug/mi.
In the case of `CC[C@H]1OC(=O)[C@H](C)[C@@H](OC2CC(C)(OC)C(O)(CNC(C)CC(=O)O)C(C)O2)[C@H](C)[C@@H](O[C@@H]2O[C@H](C)C[C@H](N(C)C)[C@H]2O)[C@](C)(O)C[C@@H](C)NC[C@H](C)[C@@H](O)[C@]1(C)O` (stereo partly drawn) [syzx-50, 3-({(2R,3S,4R,5S,8R,10R,11R,12S,13S,14R)-6-[-11-[[3,4,6-trideoxy-3-(dimethylamino)-β-D-xylo-hexopyranosy]oxy]-2-ethyl-3,4,10-trihydroxy-3,5,8,10,12,14-hexamethyl-1-oxa-7-azacyclopentadecan-15-one-13-yl-oxy]-3-hydroxy-4-methoxy-2,4-dimethyl-tetrahydropyran-3-yl-methyl}-amino)-butyric acid], the “MIC values, Staphylococcus aureus CVCC26003” value in experiment [1] worked out at 1 ug/mi. Besides, the “MIC values, Actinobacillus pleuropneumoniae CVCC262” value in experiment [2] amounted to 0.5 ug/mi. Besides, in the experiment with Haemophilus parasuis, the “MIC values, Haemophilus parasuis” value was 0.5 ug/mi. Also, the “MIC values, Pasteurella multocida CVCC399” value in experiment [3] stood at 1 ug/mi. For the same molecule, the “MIC values, Streptococcus equines CVCC556” value in experiment [4] came to 1 ug/mi.
With `CCC(CO)NC[C@]1(O)[C@H](C)O[C@@H](O[C@H]2[C@H](C)[C@@H](O[C@@H]3O[C@H](C)C[C@H](N(C)C)[C@H]3O)[C@](C)(O)C[C@@H](C)NC[C@H](C)[C@@H](O)[C@](C)(O)[C@@H](CC)OC(=O)[C@@H]2C)C[C@@]1(C)OC` (stereo partly drawn) [syzx-51, (2R,3S,4R,5S,8R,10R,11R,12S,13S,14R)-13-[(2,6-dideoxy-3-C-methyl-3-O-methyl-4-C-[(1-hydroxymethyl-propylamino)-methyl]-α-L-ribopyranosyl)oxy]-2-ethyl-3,4,10-trihydroxy-3,5,8,10,12,14-hexamethyl-11-[[3,4,6-trideoxy-3-(dimethylamino)-β-D-xylo-hexopyranosy]oxy]-1-oxa-7-azacyclopentadecan-15-one], the “MIC values, Staphylococcus aureus CVCC26003” value in experiment [1] was 0.5 ug/mi. The “MIC values, Actinobacillus pleuropneumoniae CVCC262” value in experiment [2] was 1 ug/mi. The “MIC values, Haemophilus parasuis” value in the experiment on Haemophilus parasuis is on record as 2 ug/mi. In experiment [3], the “MIC values, Pasteurella multocida CVCC399” value was determined as 0.5 ug/mi. For the same molecule, in experiment [4], the “MIC values, Streptococcus equines CVCC556” value was found to be 1 ug/mi.
Regarding `CC[C@H]1OC(=O)[C@H](C)[C@@H](O[C@H]2C[C@@](C)(OC)[C@](O)(CNCC(O)c3ccccc3)[C@H](C)O2)[C@H](C)[C@@H](O[C@@H]2O[C@H](C)C[C@H](N(C)C)[C@H]2O)[C@](C)(O)C[C@@H](C)NC[C@H](C)[C@@H](O)[C@]1(C)O` (stereo partly drawn) [syzx-52, (2R,3S,4R,5S,8R,10R,11R,12S,13S,14R)-13-[(2,6-dideoxy-3-C-methyl-3-O-methyl-4-C-[(2-hydroxy-2-phenyl-ethylamino)-methyl]-α-L-ribopyranosyl)oxy]-2-ethyl-3,4,10-trihydroxy-3,5,8,10,12,14-hexamethyl-11-[[3,4,6-trideoxy-3-(dimethylamino)-β-D-xylo-hexopyranosy]oxy]-1-oxa-7-azacyclopentadecan-15-one], the “MIC values, Staphylococcus aureus CVCC26003” value in experiment [1] is given as 0.5 ug/mi. For the same molecule, the “MIC values, Actinobacillus pleuropneumoniae CVCC262” value in experiment [2] is given as 32 ug/mi. The “MIC values, Haemophilus parasuis” value against Haemophilus parasuis was “≦0.25 ug/mi”. In addition, the “MIC values, Pasteurella multocida CVCC399” value in experiment [3] was 0.5 ug/mi. For the same molecule, the “MIC values, Streptococcus equines CVCC556” value in experiment [4] was 0.5 ug/mi.
Take `CC[C@H]1OC(=O)[C@H](C)[C@@H](O[C@H]2C[C@@](C)(OC)[C@](O)(CNCCCC(OC)OC)[C@H](C)O2)[C@H](C)[C@@H](O[C@@H]2O[C@H](C)C[C@H](N(C)C)[C@H]2O)[C@](C)(O)C[C@@H](C)NC[C@H](C)[C@@H](O)[C@]1(C)O` [syzx-56, (2R,3S,4R,5S,8R,10R,11R,12S,13S,14R)-13-[(2,6-dideoxy-3-C-methyl-3-O-methyl-4-C-[(4-dimethoxy-butylamino)-methyl]-α-L-ribopyranosyl)oxy]-2-ethyl-3,4,10-trihydroxy-3,5,8,10,12,14-hexamethyl-11-[[3,4,6-trideoxy-3-(dimethylamino)-β-D-xylo-hexopyranosy]oxy]-1-oxa-7-azacyclopentadecan-15-one]: the “MIC values, Staphylococcus aureus CVCC26003” value in experiment [1] came to 0.5 ug/mi. Besides, the “MIC values, Actinobacillus pleuropneumoniae CVCC262” value in experiment [2] stood at 0.25 ug/mi. Also, the “MIC values, Haemophilus parasuis” value against Haemophilus parasuis is on record as 0.5 ug/mi. Besides, the “MIC values, Pasteurella multocida CVCC399” value in experiment [3] amounted to 1 ug/mi. In experiment [4], the “MIC values, Streptococcus equines CVCC556” value stood at 0.25 ug/mi.
`CC[C@H]1OC(=O)[C@H](C)[C@@H](O[C@H]2C[C@@](C)(OC)[C@](O)(CNCc3ccc(Cl)c(Cl)c3)[C@H](C)O2)[C@H](C)[C@@H](O[C@@H]2O[C@H](C)C[C@H](N(C)C)[C@H]2O)[C@](C)(O)C[C@@H](C)NC[C@H](C)[C@@H](O)[C@]1(C)O` [syzx-57, (2R,3S,4R,5S,8R,10R,11R,12S,13S,14R)-13-[(2,6-dideoxy-3-C-methyl-3-O-methyl-4-C-[(3,4-dichloro-benzylamino)-methyl]-α-L-ribopyranosyl)oxy]-2-ethyl-3,4,10-trihydroxy-3,5,8,10,12,14-hexamethyl-11-[[3,4,6-trideoxy-3-(dimethylamino)-β-D-xylo-hexopyranosy]oxy]-1-oxa-7-azacyclopentadecan-15-one]: the “MIC values, Staphylococcus aureus CVCC26003” value in experiment [1] is reported as “≦0.25 ug/mi”. Moreover, the “MIC values, Actinobacillus pleuropneumoniae CVCC262” value in experiment [2] was “≦0.25 ug/mi”. For the same molecule, in the experiment on Haemophilus parasuis, the “MIC values, Haemophilus parasuis” value was “≦0.25 ug/mi”. In addition, the “MIC values, Pasteurella multocida CVCC399” value in experiment [3] was determined as 32 ug/mi. In experiment [4], the “MIC values, Streptococcus equines CVCC556” value turned out to be 4 ug/mi.
On to `CC[C@H]1OC(=O)[C@H](C)[C@@H](O[C@H]2C[C@@](C)(OC)[C@](O)(CNC(C)CCCN(C)C)[C@H](C)O2)[C@H](C)[C@@H](O[C@@H]2O[C@H](C)C[C@H](N(C)C)[C@H]2O)[C@](C)(O)C[C@@H](C)NC[C@H](C)[C@@H](O)[C@]1(C)O` (stereo partly drawn) [syzx-59, (2R,3S,4R,5S,8R,10R,11R,12S,13S,14R)-13-[(2,6-dideoxy-3-C-methyl-3-O-methyl-4-C-[(1-methyl-4-dimethylaminobutylamino)-methyl]-α-L-ribopyranosyl)oxy]-2-ethyl-3,4,10-trihydroxy-3,5,8,10,12,14-hexamethyl-11-[[3,4,6-trideoxy-3-(dimethylamino)-β-D-xylo-hexopyranosy]oxy]-1-oxa-7-azacyclopentadecan-15-one], for which the “MIC values, Staphylococcus aureus CVCC26003” value in experiment [1] is 1 ug/mi. Further, the “MIC values, Actinobacillus pleuropneumoniae CVCC262” value in experiment [2] is reported as 32 ug/mi. Also, the “MIC values, Haemophilus parasuis” value against Haemophilus parasuis is reported as 0.5 ug/mi. Besides, the “MIC values, Pasteurella multocida CVCC399” value in experiment [3] is listed as 2 ug/mi. For the same molecule, the “MIC values, Streptococcus equines CVCC556” value in experiment [4] is recorded as 2 ug/mi.
In the case of `CCC1OC(=O)C(C)C(OC2CC(C)(OC)C(O)(CNCCCNC3CCCCC3)C(C)O2)C(C)C(OC2OC(C)CC(N(C)C)C2O)C(C)(O)CC(C)NCC(C)C(O)C1(C)O` [syzx-60, (2R,3S,4R,5S,8R,10R,11R,12S,13S,14R)-13-[(2,6-dideoxy-3-C-methyl-3-O-methyl-4-C-[[(3-cyclohexylamino)propylamino]-methyl]-α-L-ribopyranosyl)oxy]-2-ethyl-3,4,10-trihydroxy-3,5,8,10,12,14-hexamethyl-11-[[3,4,6-trideoxy-3-(dimethylamino)-β-D-xylo-hexopyranosy]oxy]-1-oxa-7-azacyclopentadecan-15-one], the “MIC values, Staphylococcus aureus CVCC26003” value in experiment [1] is on record as 1 ug/mi. The “MIC values, Actinobacillus pleuropneumoniae CVCC262” value in experiment [2] was determined as 8 ug/mi. Moreover, in the experiment with Haemophilus parasuis, the “MIC values, Haemophilus parasuis” value is 1 ug/mi. In addition, the “MIC values, Pasteurella multocida CVCC399” value in experiment [3] came to 2 ug/mi. Further, the “MIC values, Streptococcus equines CVCC556” value in experiment [4] is recorded as 2 ug/mi.
Regarding `C#CC=C(C)NC[C@]1(O)[C@H](C)O[C@@H](O[C@H]2[C@H](C)[C@@H](O[C@@H]3O[C@H](C)C[C@H](N(C)C)[C@H]3O)[C@](C)(O)C[C@@H](C)NC[C@H](C)[C@@H](O)[C@](C)(O)[C@@H](CC)OC(=O)[C@@H]2C)C[C@@]1(C)OC` [syzx-62], the “MIC values, Staphylococcus aureus CVCC26003” value in experiment [1] was 0.5 ug/mi. The “MIC values, Actinobacillus pleuropneumoniae CVCC262” value in experiment [2] was found to be 8 ug/mi. Besides, the “MIC values, Haemophilus parasuis” value in the experiment with Haemophilus parasuis is listed as “≦0.25 ug/mi”. Further, the “MIC values, Pasteurella multocida CVCC399” value in experiment [3] worked out at 0.5 ug/mi. The “MIC values, Streptococcus equines CVCC556” value in experiment [4] is reported as “≦0.25 ug/mi”.
Turning to `CCCC(C)NC[C@]1(O)[C@H](C)O[C@@H](O[C@H]2[C@H](C)[C@@H](O[C@@H]3O[C@H](C)C[C@H](N(C)C)[C@H]3O)[C@](C)(O)C[C@@H](C)NC[C@H](C)[C@@H](O)[C@](C)(O)[C@@H](CC)OC(=O)[C@@H]2C)C[C@@]1(C)OC` (some centres unmarked) [syzx-63], the “MIC values, Staphylococcus aureus CVCC26003” value in experiment [1] amounted to 0.5 ug/mi. In addition, the “MIC values, Actinobacillus pleuropneumoniae CVCC262” value in experiment [2] is reported as 0.5 ug/mi. Moreover, the “MIC values, Haemophilus parasuis” value in the experiment on Haemophilus parasuis was “≦0.25 ug/mi”. Moreover, in experiment [3], the “MIC values, Pasteurella multocida CVCC399” value is recorded as “≦0.25 ug/mi”. Also, in experiment [4], the “MIC values, Streptococcus equines CVCC556” value is “≦0.25 ug/mi”.
